Experimental data: patent US20230278984A1 (Global Blood Therapeutics, Inc., priority 2020, published 2023)

Target: T1, Human pyruvate kinase R (PKR) (Homo sapiens, UniProt P30613)
T1 construct: Human pyruvate kinase R (PKR), residues 14-574; 6x-His (N, cleaved yes); 8x-Arg (N, cleaved yes); SUMO (N, cleaved yes); host or cells: E. coli
Assay: Biochemical assay for activation of pyruvate kinase R (Kinase-Glo luminescence measurement of ATP generation)
Settings: for AC50: PKR biochemical assay, 0.1 nM PKR, 0.3 mM ADP, 2 mM FBP, 0.1 mM PEP; for Emax: maximal activation level relative to the activation level achieved by the literature compound AG-348 @ 10 μM
Method: Human pyruvate kinase R (PKR), residues 14-574, and human pyruvate kinase M2, residues 1-531, were cloned into expression plasmids and obtained from ATUM Bio (Newark, Calif.). Proteins were translated as fusions with 6×-His, 8×-Arg, and SUMO at the N-terminus. A third construct of human PKR was truncated, residues 50-574, and similarly cloned for use in crystallography experiments. All proteins were cloned, expressed in E. coli, and purified using similar protocols. Cells were grown at 30° C. in Luria-Bertani broth supplemented with 0.4% glucose to OD600=0.8 and induced with 0.4 mM IPTG at 16° C. for 18 hours. Cells were harvested by centrifugation, resuspended in 50 mM potassium phosphate pH 8.0, 500 mM NaCl, 25 mM imidazole pH 8.0, and 3 mM (3-mercaptoethanol. Cells were lysed using a LM20 microfluidizer from Microfluidics (Westwood, Mass.). The crude lysate was immediately supplemented with 0.2 mM phenylmethylsulfonyl fluoride (PMSF) and centrifuged at 20,000 g for 20 minutes. The soluble fraction was subsequently incubated with 2 mL Ni-NTA (GE Healthcare) per 1,000 ODs for 1 hour at 4° C. Following incubation with the Ni-NTA resin, lysate was removed by pelleting resin at 2,500 g for 3 minutes and washed 3 times with 9 bed volumes of 50 mM potassium phosphate pH 8.0, 500 mM NaCl, 25 mM imidazole, and 3 mM 3-mercaptoethanol. Following the batch wash Ni-NTA resin was loaded onto a gravity column and His-tagged protein was eluted with 6 bed volumes of 10 mM Tris/HCl pH 8.0, 200 mM NaCl, 500 mM imidazole, and 3 mM (3-mercaptoethanol. Eluted protein was dialyzed overnight against 10 mM Tris/HCl pH 8.0, 200 mM NaCl, and 1 mM DTT and the 6×-His-8×-Arg-SUMO-tag was cleaved using a 20:1 molar ratio of protein:3C protease. The protein was purified by anion exchange chromatography on a HiTrapQ or MonoQ 10/100 GL column (GE Healthcare) via a linear NaCl gradient and twice by size exclusion chromatography using a Superdex S200 26/60 column (GE Healthcare) run in 10 mM Tris/HCl pH 8.0, 200 mM NaCl, 10 mM MgCl2, 1 mM DTT. Proteins were concentrated to −12 mg/mL for crystallization and flash frozen for storage.
Biochemical Assay for Activation of Pyruvate Kinase R
Activation of pyruvate kinase R (PKR) and pyruvate kinase M2 (PKM2) were measured using a luminescence based measurement of ATP generation and the Kinase-Glo luminescent kinase reagent kit.

T1 sequence (P30613 14-574): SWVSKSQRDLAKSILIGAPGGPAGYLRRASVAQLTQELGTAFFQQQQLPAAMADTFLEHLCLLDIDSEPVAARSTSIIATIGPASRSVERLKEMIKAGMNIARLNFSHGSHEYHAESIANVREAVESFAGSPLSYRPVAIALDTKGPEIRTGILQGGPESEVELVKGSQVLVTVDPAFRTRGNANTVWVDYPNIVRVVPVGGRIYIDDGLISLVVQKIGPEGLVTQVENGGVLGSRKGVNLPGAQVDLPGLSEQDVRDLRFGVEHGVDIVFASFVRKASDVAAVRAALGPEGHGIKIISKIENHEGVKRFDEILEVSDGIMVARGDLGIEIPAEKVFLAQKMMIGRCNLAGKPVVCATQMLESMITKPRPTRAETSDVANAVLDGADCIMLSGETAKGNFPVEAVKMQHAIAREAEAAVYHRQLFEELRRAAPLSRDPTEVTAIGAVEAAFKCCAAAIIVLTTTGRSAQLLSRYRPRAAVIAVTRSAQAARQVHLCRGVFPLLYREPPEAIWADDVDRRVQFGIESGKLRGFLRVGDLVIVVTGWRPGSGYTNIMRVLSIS

Row | SMILES | AC50 [nM] | Emax [%]
1 | Cc1nc(CN(C)C(=O)NCc2ncnn2-c2ccc3cccnc3c2)n(-c2ccc(Cl)c(F)c2)n1 [Compound 53, 1-{[1-(4-chloro-3-fluorophenyl)-3-methyl-1H-1,2,4-triazol-5-yl]methyl}-1-methyl-3-{[1-(quinolin-7-yl)-1H-1,2,4-triazol-5-yl]methyl}urea] | 120 | 73
2 | Cc1nc(CNC(=O)N(C)Cc2ncnn2-c2ccc3cccnc3c2)n(-c2ccc(Cl)c(F)c2)n1 [Compound 54, 3-{[1-(4-chloro-3-fluorophenyl)-3-methyl-1H-1,2,4-triazol-5-yl]methyl}-1-methyl-1-{[1-(quinolin-7-yl)-1H-1,2,4-triazol-5-yl]methyl}urea] | 85 | 71
3 | Cc1nc(CNC(=O)NCc2nc(C3CC3)nn2-c2ccc3cccnc3c2)n(-c2ccc(Cl)c(F)c2)n1 [Compound 55, 3-{[1-(4-chloro-3-fluorophenyl)-3-methyl-1H-1,2,4-triazol-5-yl]methyl}-1-{[3-cyclopropyl-1-(quinolin-7-yl)-1H-1,2,4-triazol-5-yl]methyl}urea] | 79 | 90
4 | O=C(NCc1nnnn1-c1ccc(F)c(F)c1)NCc1nnnn1-c1ccc(F)c(F)c1 [Compound 56, 1,3-bis({[1-(3,4-difluorophenyl)-1H-1,2,3,4-tetrazol-5-yl]methyl})urea] | 1100 | 106
5 | Cc1ccc(-n2nnnc2CNC(=O)NCc2nnnn2-c2ccc(C)c(F)c2)cc1F [Compound 58, 1,3-bis({[1-(3-fluoro-4-methylphenyl)-1H-1,2,3,4-tetrazol-5-yl]methyl})urea] | 220 | 88
6 | Cc1cc(-n2nnnc2CNC(=O)NCc2nnnn2-c2ccc(Cl)c(C)c2)ccc1Cl [Compound 59, 1,3-bis({[1-(4-chloro-3-methylphenyl)-1H-1,2,3,4-tetrazol-5-yl]methyl})urea] | 1200 | 86
7 | O=C(NCc1nnnn1-c1ccc(Cl)c(Cl)c1)NCc1nnnn1-c1ccc(Cl)c(Cl)c1 [Compound 60, 1,3-bis({[1-(3,4-dichlorophenyl)-1H-1,2,3,4-tetrazol-5-yl]methyl})urea] | 180 | 82
8 | Cc1cc(-n2nnnc2CNC(=O)NCc2nnnn2-c2ccc(F)c(C)c2)ccc1F [Compound 62, 1,3-bis({[1-(4-fluoro-3-methylphenyl)-1H-1,2,3,4-tetrazol-5-yl]methyl})urea] | 210 | 66
9 | O=C(NCc1nnnn1-c1ccc(Cl)c(F)c1)NCc1nnnn1-c1ccc(Cl)c(F)c1 [Compound 63, 1,3-bis({[1-(4-chloro-3-fluorophenyl)-1H-1,2,3,4-tetrazol-5-yl]methyl})urea] | 63 | 99

More lines, now with the values ahead:

Row | AC50 [nM] | Emax [%] | SMILES
10 | 24 | 37 | Cn1ncc2cc(-n3ncnc3CNC(=O)NCc3ncnn3-c3ccc(Cl)c(F)c3)ccc21 [Compound 52, 1-{[1-(4-chloro-3-fluorophenyl)-1H-1,2,4-triazol-5-yl]methyl}-3-{[1-(1-methyl-1H-indazol-5-yl)-1H-1,2,4-triazol-5-yl]methyl}urea]
11 | 64 | 87 | Cc1ccc(-n2ncnc2CNC(=O)NCc2ncnn2-c2ccc(C)c(C)c2)cc1C [Compound 57, 1,3-bis({[1-(3,4-dimethylphenyl)-1H-1,2,4-triazol-5-yl]methyl})urea]
12 | 11 | 36 | O=C(NCc1ncnn1-c1ccc(Cl)cc1)NCc1ncnn1-c1ccc(Cl)cc1 [Compound 61, 1,3-bis({[1-(4-chlorophenyl)-1H-1,2,4-triazol-5-yl]methyl})urea]
13 | 120 | 46 | O=C(NCc1ncnn1-c1ccc(F)c(Cl)c1)NCc1ncnn1-c1ccc(F)c(Cl)c1 [Compound 64, 1,3-bis({[1-(3-chloro-4-fluorophenyl)-1H-1,2,4-triazol-5-yl]methyl})urea]
14 | 1800 | 62 | COc1ccc(-n2ncnc2CNC(=O)NCc2ncnn2-c2ccc(OC)cc2)cc1 [Compound 65, 1,3-bis({[1-(4-methoxyphenyl)-1H-1,2,4-triazol-5-yl]methyl})urea]
